Where no end group is shown, it is not given here.
Key:
Type in all cases: biochemical
[1] = Oxygen radical absorption capacity
[2] = DPPH radical elimination activity; settings: 1 mg/mL
Experimental: 1 mL of the sample of different concentrations was respectively well mixed with 1 mL of DPPH solution ([…], prepared using 95% ethanol). The mixed solutions were kept still in shadow at room temperature for 30 min, and then the absorbance was determined at the wavelength of 517 nm. 1 mL of 95% ethanol solution in replacement of the DDPPH solution was used to prepare the sample reference group; and the control group included 1 mL of DPPH solution and 1 mL of 95% ethanol solution. The elimination rate of DPPH radicals of the sample was calculated using the following equation: […]
In the equation, • Ai—absorbance of the sample group • Aj—absorbance of the sample reference group • A0—absorbance of the control group

[3] = ABTS radical elimination activity; settings: 1 mg/mL
Experimental: 7 mM ABTS mother solution and 2.45 mM potassium peroxydisulfate solution were respectively prepared and stored for later use. The two solutions were mixed in a ratio of 1:1 before use. The mixed solution was placed still at room temperature for 16 h, and then diluted with phosphate buffer solution (5 mM, 7.4 pH) to obtain an ABTS radical solution with absorbance of 0.70±0.02 at the wavelength of 734 nm. The ABTS radical solution was mixed with samples of different concentrations and equal volume; after 10 min reaction at room temperature, the absorbance of the mixtures was determined at the wavelength of 734 nm; and finally, the mixtures were zero-set using the phosphate buffer solution (5 mM, 7.4 pH). In the control group, distilled water was used to replace samples. The elimination rate of ABTS radicals of the sample was calculated using the following equation: […]
In the equation: • Acontrol—absorbance of the control group • Asample—absorbance of the sample

GAAVAL [anti-oxidation polypeptide, hexapeptide isolated from alkali protease hydrolysate of black shark skins]
Oxygen radical absorption capacity [1]: 527.53±65.15 μmol Trolox/g peptide | Elimination rate of DPPH radicals [2]: 67.00±0.24% | Elimination rate of ABTS radicals [3]: 64.12±0.20%

Source: patent publication US11408022B2, “Preparation method of anti-oxidation polypeptide” (Fu Zhou University, priority 2018, dated 2022)
